The record followed here is patent publication EP1257544B1, “PIPERAZINE AND PIPERIDINE DERIVATIVES FOR TREATMENT OR PREVENTION OF NEURONAL DAMAGE” (VERTEX PHARMACEUTICALS INCORPORATED, priority 2000, dated 2001).

Counter-ions that a name gives are not always drawn.

The experiment has as its system Dissociated VM cells. Nature of the experiment: Neuroprotection Assay (NMDA-induced neuroexcitotoxic injury, high affinity 3H-dopamine uptake). It is filed as cell-based, Sprague-Dawley rat. Conditions: embryonic day 15 rat ventral mesencephalic cultures, NMDA (100-400 µM) for 20 hours. The text has this:
The neuroprotective activity of the compounds of this invention may be assayed using rat embryo ventral mesencephalic cells in culture which are subsequently exposed to the glutamate receptor agonist NMDA. This assay is described in detail in the example section.
The ventral mesencephalic region was dissected out of embryonic day 15 Sprague-Dawley rat embryos (Harlan), dissociated into single cell suspension by a combination of trypsinization and trituration (Costantini et al., Neurobiol Dis., pp. 97-106 (1998). Dissociated VM cells were plated into poly-L-ornithine-coated 96-well plates at a density of 85,000 cells/well in 100 uL of DMEM supplemented with 18% heat-inactivated horse serum, 0.24% glucose, 2 mM glutamine and 50 u/ml pernicillin/streptomycin and incubated in a 5% CO2 incubator. After one day in culture (DIV1), the medium was replaced with 100 µL of a defined medium (DMEM supplemented with 1x N2 cocktail (Gibco-BRL), 0.12% glucose, 2 mM glutamine, and 50 units/ml penicillin/streptomycin) containing DMSO or various concentrations of the compounds of this invention. On DIV5, neuroexcitotoxic injury was induced by the addition of various concentrations of the glutamate receptor agonist NMDA (100-400 µM). Cultures were incubated with the neurotoxin for 20 hours and the effects of neurophilin compounds were assessed using high affinity ^3H-dopamine uptake according to a procedure published by Park and Mytilineou [Brain Res., 599, pp. 83-97 (1992)].
For the compound `CCN1CCCC[C@H]1C(=O)N1CCC[C@H]1C(c1ccccc1)c1ccccc1` [Compound 27, 1-[(S)-2-(1,1-Diphenylmethyl)-pyrrolidin-1-yl]-1-((S)-1-ethyl-piperidin-2-yl)-methanone], the EC50 (in general, the concentration giving half of the maximal effect) is over 500 nM.

Consider `CCN1CCCC[C@H]1C(=O)N1CCC(Cc2ccccc2)CC1` [Compound 26, 1-(4-Benzylpiperidin-1-yl)-1-((S)-1-ethylpiperidin-2-yl)methanone], for which the EC50 is under 100 nM. For `O=C([C@H]1CCCN1Cc1ccccc1)N1CCC(Cc2ccccc2)CC1` [Compound 55, (4-Benzylpiperidin-1-yl)-((2R)-1-benzylpyrrolidin-2-yl)methanone hydrochloride], the EC50 lay within 100 to 500 nM.

Regarding `CCN1CCC[C@H]1C(=O)N1CCN(C(c2ccc(F)cc2)c2ccc(F)cc2)CC1` [Compound 50, 4-[Bis-(4-fluorophenyl)methyl]piperazin-1-yl}-((2S)-1-ethylpyrrolidin-2-yl)-methanone dihydrochloride], the EC50 fell in the range of 100 to 500 nM. For `CCN1CCCC[C@H]1CN1CCN(C(c2ccccc2)c2ccccc2)CC1` [Compound 100, 1-Benzhydryl-4-((2S)-1-ethylpiperidin-2-ylmethyl)-piperazine], the EC50 was under 100 nM. As for `CCN1CCCC[C@H]1CN1CCC(Cc2ccccc2)CC1` [Compound 101, 4-Benzyl-1-((2S)-1-ethylpiperidin-2-ylmethyl)-piperidine], the EC50 is under 100 nM. To `CCN1CCCC[C@H]1C(=O)N1CCN(Cc2cccnc2)CC1` [Compound 36, ((2S)-1-Ethylpiperidin-2-yl)-(4-pyridin-3-ylmethylpiperazin-1-yl)-methanone trihydrochloride] belongs over 500 nM; to `CCN1CCCC[C@H]1C(=O)N1CCN(Cc2ccc(OC)cc2)CC1` [Compound 75, ((2S)-1-Ethylpiperidin-2-yl)-[4-(4-methoxybenzyl)-piperazin-1-yl]-methanone], over 500 nM; to `CCN1CCCC[C@H]1C(=O)N1CCN(C(c2ccccc2)c2ccc(Cl)cc2)CC1` (stereo partly drawn) [Compound 41, {4-[(4-Chlorophenyl)phenylmethyl]-piperazin-1-yl}-((2S)-1-ethylpiperidin-2-yl)-methanone dihydrochloride], under 100 nM. In the case of `CN1CCC(C(=O)N2CCC(Cc3ccccc3)CC2)CC1` [Compound 202], the EC50 fell in the range of 100 to 500 nM. For the compound `CCN1CCC(C(=O)N2CCN(c3ccc(F)cc3)CC2)CC1` [Compound 226], the EC50 was in the range of 100 to 500 nM.

With `COC(=O)CO[C@@H]1C[C@@H](C(=O)N2CCC(Cc3ccccc3)CC2)N(Cc2ccccc2)C1` [Compound 155, [(2S, 4R)-1-Benzyl-5-(4-benzylpiperidine-1-carbonyl)-pyrrolidin-3-yloxyl]-acetic acid methyl ester], the EC50 is over 500 nM. For `CCN1CCCC[C@H]1C(=O)N1CCN(CCc2ccccc2)CC1` [Compound 74, ((2S)-1-Ethylpiperidin-2-yl)-(4-phenethylpiperazin-1-yl)-methanone dihydrochloride] the value was over 500 nM; for `O=C([C@@H]1CCCCN1Cc1ccccc1)N1CCN(C(c2ccccc2)c2ccccc2)CC1` [Compound 20, 1-((S)-1-Benzyl-piperidin-2-yl)-1-[4-(1,1-diphenyl-methyl)-piperazin-1-yl]-methanone], under 100 nM. With `CCN1CCCC[C@H]1C(=O)N1CCN(C(c2ccc(F)cc2)c2ccc(F)cc2)CC1` [Compound 25, 1-{4-[1,1-Bis-(4-fluorophenyl)methyl]-piperazin-1-yl}-1-((S)-1-ethylpiperidin-2-yl)methanone], the EC50 fell in the range of 100 to 500 nM.
